Assay results from ChEMBL document CHEMBL1201862, “PubChem BioAssay data set” (2004).
Values belong to the molecule of their own block, whether it stands above or below them. Activity calls are given as the source filed them.

How the values were obtained:
Assay type in all cases: functional
[1] = biological target: T1, DNA dC->dU-editing enzyme APOBEC-3G (Homo sapiens, UniProt Q9HC16); test: SAR analysis of small molecule inhibitors of APOBEC3G DNA Deaminase via a fluorescence-based single-stranded DNA deaminase assay - Set 2.; conditions: read-out: IC50_Mean
[2] = biological target: T2, DNA dC->dU-editing enzyme APOBEC-3A (Homo sapiens, UniProt P31941); test: SAR analysis of small molecule inhibitors of APOBEC3A DNA Deaminase via a fluorescence-based single-stranded DNA deaminase assay - Set 2.; conditions: read-out: IC50_Mean
T2 sequence (P31941 whole entry): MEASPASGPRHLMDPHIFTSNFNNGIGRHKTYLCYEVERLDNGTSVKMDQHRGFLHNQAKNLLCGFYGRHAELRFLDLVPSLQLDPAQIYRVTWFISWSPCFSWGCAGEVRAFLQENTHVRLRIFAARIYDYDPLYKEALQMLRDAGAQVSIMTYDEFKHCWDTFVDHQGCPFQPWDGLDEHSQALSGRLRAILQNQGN

[3] = biological target: T1, DNA dC->dU-editing enzyme APOBEC-3G; test: inhibition of APOBEC3G ssDNA deamination – biochemical, fluorescence, single-stranded DNA substrate, SAR follow-up (AID 602136); conditions: read-out: IC50_Mean
[4] = biological target: T2, DNA dC->dU-editing enzyme APOBEC-3A; test: SAR analysis of small molecule inhibitors of APOBEC3A DNA Deaminase via a fluorescence-based single-stranded DNA deaminase assay.; conditions: read-out: IC50_Mean
[5] = biological target: Multidrug resistance protein CDR2 (Candida albicans (strain SC5314 / ATCC MYA-2876) (Yeast), UniProt P78595); test: inhibition of Nile Red efflux via Candida CDR2 – S. cerevisiae AD1-8u, singleplex, Cherry Pick1 hits, dose response (AID 588604)
[6] = biological target: Protein kinase C zeta type (Homo sapiens, UniProt Q05513);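 also: measured as one member of a broad kinase profiling panel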
[7] = biological target: Serine/threonine-protein kinase Chk2 (Homo sapiens, UniProt O96017);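 also: CHEK2 entry within a kinome-wide screening panel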
[8] = biological target: 5'-AMP-activated protein kinase catalytic subunit alpha-1 (Homo sapiens, UniProt Q13131)
Chain of 5'-AMP-activated protein kinase catalytic subunit alpha-1 (Q13131 whole entry): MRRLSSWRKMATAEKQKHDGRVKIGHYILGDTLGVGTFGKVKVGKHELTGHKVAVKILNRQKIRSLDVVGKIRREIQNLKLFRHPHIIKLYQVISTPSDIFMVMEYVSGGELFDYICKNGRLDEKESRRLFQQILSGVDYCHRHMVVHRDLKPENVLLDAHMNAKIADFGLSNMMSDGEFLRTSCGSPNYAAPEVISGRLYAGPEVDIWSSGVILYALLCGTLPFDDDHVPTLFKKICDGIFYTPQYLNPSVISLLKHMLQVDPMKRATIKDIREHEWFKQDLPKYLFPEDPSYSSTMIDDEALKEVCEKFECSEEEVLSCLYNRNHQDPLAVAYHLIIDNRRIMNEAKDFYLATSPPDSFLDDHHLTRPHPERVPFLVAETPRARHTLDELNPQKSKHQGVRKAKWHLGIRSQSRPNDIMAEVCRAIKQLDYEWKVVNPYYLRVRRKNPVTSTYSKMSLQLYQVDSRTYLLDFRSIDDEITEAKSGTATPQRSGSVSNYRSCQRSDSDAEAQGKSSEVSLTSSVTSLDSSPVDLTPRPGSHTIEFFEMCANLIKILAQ

[9] = biological target: Mast/stem cell growth factor receptor Kit (Homo sapiens, UniProt P10721);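 also: KIT entry within a kinase panel assay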
[10] = biological target: Serine/threonine-protein kinase PLK3 (Homo sapiens, UniProt Q9H4B4)
Aurora kinase A = Aurora kinase A (Homo sapiens, UniProt O14965);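 also: value from the Navigating the Kinome kinase panel profiling, panel entry STK6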
Chain of Aurora kinase A (O14965 whole entry): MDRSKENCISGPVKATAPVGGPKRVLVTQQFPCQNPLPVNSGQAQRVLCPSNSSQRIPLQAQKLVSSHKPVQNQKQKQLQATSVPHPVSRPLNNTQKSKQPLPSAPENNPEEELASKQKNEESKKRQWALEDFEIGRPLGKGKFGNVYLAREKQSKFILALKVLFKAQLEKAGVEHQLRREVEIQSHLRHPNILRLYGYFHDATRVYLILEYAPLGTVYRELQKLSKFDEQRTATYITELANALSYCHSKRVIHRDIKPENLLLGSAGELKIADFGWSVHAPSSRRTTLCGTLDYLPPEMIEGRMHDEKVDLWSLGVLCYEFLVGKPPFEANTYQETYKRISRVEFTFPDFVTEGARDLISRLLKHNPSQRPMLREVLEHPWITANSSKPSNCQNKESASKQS

[11] = biological target: Glycogen synthase kinase-3 beta (Homo sapiens, UniProt P49841);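 also: value comes from a broad kinome profiling panel, with GSK3B as the panel member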
Chain of Glycogen synthase kinase-3 beta (P49841 whole entry): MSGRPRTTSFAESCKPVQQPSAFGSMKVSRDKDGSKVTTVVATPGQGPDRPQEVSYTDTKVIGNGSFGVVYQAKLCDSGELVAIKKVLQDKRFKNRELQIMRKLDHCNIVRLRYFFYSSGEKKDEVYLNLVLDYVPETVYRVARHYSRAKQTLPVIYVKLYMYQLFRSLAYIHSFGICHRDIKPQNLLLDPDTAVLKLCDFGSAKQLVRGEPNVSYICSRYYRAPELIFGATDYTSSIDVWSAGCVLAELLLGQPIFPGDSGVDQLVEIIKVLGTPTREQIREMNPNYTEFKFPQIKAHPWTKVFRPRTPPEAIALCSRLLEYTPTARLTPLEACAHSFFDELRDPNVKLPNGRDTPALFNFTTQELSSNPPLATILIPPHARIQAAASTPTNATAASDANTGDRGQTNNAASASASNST

[12] = biological target: MAP/microtubule affinity-regulating kinase 3 (Homo sapiens, UniProt P27448);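 also: MARK3 affinity measured as one member of a kinome panel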
[13] = biological target: Serine/threonine-protein kinase pim-1 (Homo sapiens, UniProt P11309)
Chain of Serine/threonine-protein kinase pim-1 (P11309 whole entry): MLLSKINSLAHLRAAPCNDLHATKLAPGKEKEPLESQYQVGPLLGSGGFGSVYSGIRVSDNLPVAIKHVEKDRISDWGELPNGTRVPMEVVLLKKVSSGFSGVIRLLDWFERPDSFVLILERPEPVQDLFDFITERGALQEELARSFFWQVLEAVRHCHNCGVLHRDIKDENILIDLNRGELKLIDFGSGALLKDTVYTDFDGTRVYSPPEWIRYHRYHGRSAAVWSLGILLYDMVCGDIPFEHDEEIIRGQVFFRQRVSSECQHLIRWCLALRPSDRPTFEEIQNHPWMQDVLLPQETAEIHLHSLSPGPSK

[14] = biological target: Casein kinase II subunit alpha (Homo sapiens, UniProt P68400)
Chain of Casein kinase II subunit alpha (P68400 whole entry): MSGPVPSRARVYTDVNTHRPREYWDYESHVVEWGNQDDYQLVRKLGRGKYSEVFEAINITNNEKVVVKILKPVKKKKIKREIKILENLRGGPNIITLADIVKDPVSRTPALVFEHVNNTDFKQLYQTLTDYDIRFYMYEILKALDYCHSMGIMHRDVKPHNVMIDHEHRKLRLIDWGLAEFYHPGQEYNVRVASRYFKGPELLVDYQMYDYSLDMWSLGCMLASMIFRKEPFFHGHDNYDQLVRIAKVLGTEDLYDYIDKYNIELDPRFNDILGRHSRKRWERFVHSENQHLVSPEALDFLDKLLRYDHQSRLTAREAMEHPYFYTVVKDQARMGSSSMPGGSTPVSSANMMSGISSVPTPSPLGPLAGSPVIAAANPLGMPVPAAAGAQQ

[15] = biological target: Serine/threonine-protein kinase PAK 4 (Homo sapiens, UniProt O96013);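 also: value obtained within a kinome profiling panel in which PAK4 was one of the panel members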
Chain of Serine/threonine-protein kinase PAK 4 (O96013 whole entry): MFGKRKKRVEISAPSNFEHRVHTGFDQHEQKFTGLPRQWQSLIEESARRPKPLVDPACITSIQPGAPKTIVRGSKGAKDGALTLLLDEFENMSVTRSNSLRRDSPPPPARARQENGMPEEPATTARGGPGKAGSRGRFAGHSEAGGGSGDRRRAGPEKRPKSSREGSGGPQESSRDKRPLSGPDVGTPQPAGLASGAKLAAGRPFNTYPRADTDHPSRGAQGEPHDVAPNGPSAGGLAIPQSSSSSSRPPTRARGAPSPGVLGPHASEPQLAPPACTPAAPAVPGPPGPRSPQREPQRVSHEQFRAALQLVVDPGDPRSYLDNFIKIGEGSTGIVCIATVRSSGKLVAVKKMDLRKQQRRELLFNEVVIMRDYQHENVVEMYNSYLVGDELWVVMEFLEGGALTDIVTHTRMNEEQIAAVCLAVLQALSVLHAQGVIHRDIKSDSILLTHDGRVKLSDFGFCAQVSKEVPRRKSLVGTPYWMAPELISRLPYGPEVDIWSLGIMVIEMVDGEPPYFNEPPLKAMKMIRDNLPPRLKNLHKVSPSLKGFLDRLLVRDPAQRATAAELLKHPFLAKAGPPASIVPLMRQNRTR

[16] = biological target: RAC-gamma serine/threonine-protein kinase (Homo sapiens, UniProt Q9Y243)
[17] = biological target: Serine/threonine-protein kinase MRCK alpha (Homo sapiens, UniProt Q5VT25)
[18] = biological target: MAP kinase-activated protein kinase 2 (Homo sapiens, UniProt P49137);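 also: measured as one member of a kinome-wide kinase panel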
[19] = biological target: Serine/threonine-protein kinase Chk1 (Homo sapiens, UniProt O14757);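 also: measured as one member of a kinome-wide kinase profiling panel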
[20] = biological target: RAC-alpha serine/threonine-protein kinase (Homo sapiens, UniProt P31749);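 also: AKT1 affinity measured as one member of a kinome-wide kinase profiling panel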
Chain of RAC-alpha serine/threonine-protein kinase (P31749 whole entry): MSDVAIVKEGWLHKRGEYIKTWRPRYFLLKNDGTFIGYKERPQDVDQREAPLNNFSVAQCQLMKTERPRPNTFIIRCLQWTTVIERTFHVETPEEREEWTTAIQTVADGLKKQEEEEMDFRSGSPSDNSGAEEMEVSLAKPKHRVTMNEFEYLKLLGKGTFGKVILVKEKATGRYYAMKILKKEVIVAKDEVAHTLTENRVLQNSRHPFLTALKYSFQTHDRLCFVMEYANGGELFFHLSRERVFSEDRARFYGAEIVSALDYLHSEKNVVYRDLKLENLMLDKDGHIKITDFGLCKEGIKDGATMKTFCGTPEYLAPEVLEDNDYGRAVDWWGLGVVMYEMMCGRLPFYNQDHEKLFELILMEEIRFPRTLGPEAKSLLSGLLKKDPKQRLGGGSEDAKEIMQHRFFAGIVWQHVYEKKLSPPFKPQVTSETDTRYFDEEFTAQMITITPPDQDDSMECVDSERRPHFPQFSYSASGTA

[21] = biological target: cAMP-dependent protein kinase catalytic subunit alpha (Homo sapiens, UniProt P17612)
[22] = biological target: Ribosomal protein S6 kinase alpha-3 (Homo sapiens, UniProt P51812);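 also: measured within a kinome-wide profiling panel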
[23] = biological target: Cyclin-dependent kinase 1 (Homo sapiens, UniProt P06493);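 also: Kinome-wide panel profiling, with the target listed as panel member CDC2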
Chain of Cyclin-dependent kinase 1 (P06493 whole entry): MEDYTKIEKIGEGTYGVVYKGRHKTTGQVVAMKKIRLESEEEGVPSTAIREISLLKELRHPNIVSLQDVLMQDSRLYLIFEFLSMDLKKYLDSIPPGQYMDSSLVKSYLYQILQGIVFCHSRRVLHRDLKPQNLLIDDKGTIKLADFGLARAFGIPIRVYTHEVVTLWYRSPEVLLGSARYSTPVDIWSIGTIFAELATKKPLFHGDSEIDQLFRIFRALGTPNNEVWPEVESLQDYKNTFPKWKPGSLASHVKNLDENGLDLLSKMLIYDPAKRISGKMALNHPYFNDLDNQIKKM

[24] = biological target: Protein kinase C gamma type (Homo sapiens, UniProt P05129)
Ephrin type-A receptor 2 = Ephrin type-A receptor 2 (Homo sapiens, UniProt P29317);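 also: EPHA2 tested as one member of a kinome-wide kinase panel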
[25] = biological target: Cyclin-dependent kinase 2 (Homo sapiens, UniProt P24941);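 also: CDK2 measured as one member of a broad kinome profiling panel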
[26] = biological target: Ribosomal protein S6 kinase beta-1 (Homo sapiens, UniProt P23443);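 also: measured as one member of a kinome-wide profiling panel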
[27] = biological target: Protein kinase C delta type (Homo sapiens, UniProt Q05655)
Chain of Protein kinase C delta type (Q05655 whole entry): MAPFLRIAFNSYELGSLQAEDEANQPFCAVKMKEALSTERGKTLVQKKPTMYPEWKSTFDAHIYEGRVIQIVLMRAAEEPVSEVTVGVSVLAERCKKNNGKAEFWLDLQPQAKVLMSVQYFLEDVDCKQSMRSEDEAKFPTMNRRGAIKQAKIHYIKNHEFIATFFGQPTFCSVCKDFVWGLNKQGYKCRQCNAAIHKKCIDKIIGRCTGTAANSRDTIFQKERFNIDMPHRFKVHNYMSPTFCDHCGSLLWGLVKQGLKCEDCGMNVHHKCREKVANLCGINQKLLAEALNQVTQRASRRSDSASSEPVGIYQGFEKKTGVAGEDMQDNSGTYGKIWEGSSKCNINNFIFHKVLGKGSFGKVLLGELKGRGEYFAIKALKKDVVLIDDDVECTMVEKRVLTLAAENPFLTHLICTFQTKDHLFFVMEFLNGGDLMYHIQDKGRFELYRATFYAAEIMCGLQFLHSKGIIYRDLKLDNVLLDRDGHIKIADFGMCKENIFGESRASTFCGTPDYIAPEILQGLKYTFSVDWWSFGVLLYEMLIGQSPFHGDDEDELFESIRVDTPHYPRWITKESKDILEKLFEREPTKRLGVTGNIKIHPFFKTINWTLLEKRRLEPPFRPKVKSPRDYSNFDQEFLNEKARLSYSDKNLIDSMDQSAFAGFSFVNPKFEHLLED

[28] = biological target: Serine/threonine-protein kinase PLK1 (Homo sapiens, UniProt P53350);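 also: PLK1 measured as one member of a kinome-wide profiling panel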
Chain of Serine/threonine-protein kinase PLK1 (P53350 whole entry): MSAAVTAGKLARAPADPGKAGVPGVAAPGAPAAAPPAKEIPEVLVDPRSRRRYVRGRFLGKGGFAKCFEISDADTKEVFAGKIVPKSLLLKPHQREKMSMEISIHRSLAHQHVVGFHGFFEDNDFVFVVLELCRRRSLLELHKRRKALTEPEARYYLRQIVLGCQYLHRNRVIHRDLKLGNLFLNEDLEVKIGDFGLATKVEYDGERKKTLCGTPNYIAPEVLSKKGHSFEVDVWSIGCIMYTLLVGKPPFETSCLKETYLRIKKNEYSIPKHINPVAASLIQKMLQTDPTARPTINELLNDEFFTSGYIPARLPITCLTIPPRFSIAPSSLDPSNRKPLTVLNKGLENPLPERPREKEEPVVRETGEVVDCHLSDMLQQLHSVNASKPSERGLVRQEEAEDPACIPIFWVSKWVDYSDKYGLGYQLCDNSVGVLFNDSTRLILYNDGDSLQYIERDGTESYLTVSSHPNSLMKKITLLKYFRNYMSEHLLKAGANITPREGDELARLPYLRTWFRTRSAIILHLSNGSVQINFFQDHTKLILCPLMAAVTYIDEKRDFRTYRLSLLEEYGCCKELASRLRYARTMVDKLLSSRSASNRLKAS

[29] = biological target: T3, Melanin-concentrating hormone receptor 1 (Homo sapiens, UniProt Q99705); test: Late-stage fluorescence-based counterscreen for antagonists of the G-protein coupled receptor 7 (GPR7): cell-based dose response assay to identify antagonists of the melanin-concentrating hormone receptor 1 (MCHR1) Set 6.
[30] = biological target: T4, Neuropeptides B/W receptor type 1 (Homo sapiens, UniProt P48145); test: human NPBW1 receptor blockade, IC50 – cell-based, fluorescence, dose response, set 6, late-stage follow-up (AID 588583)
T4 sequence (P48145 whole entry): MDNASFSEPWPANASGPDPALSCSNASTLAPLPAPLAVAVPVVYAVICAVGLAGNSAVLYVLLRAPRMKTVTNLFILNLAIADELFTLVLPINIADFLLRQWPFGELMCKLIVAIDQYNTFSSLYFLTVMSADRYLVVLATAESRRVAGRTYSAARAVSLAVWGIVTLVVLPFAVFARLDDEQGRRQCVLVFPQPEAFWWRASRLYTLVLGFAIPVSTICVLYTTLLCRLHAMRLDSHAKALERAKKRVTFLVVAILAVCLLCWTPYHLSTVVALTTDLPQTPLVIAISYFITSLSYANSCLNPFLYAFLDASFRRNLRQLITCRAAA

[31] = biological target: Fibroblast growth factor receptor 3 (Homo sapiens, UniProt P22607)
[32] = biological target: Fibroblast growth factor receptor 1 (Homo sapiens, UniProt P11362)
[33] = biological target: Tyrosine-protein kinase Blk (Homo sapiens, UniProt P51451);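 also: obtained as one member of a kinome-wide kinase assay panel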
[34] = biological target: 3-phosphoinositide-dependent protein kinase 1 (Homo sapiens, UniProt O15530);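 also: value comes from the Navigating the Kinome panel, PDPK1 member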
[35] = biological target: Inhibitor of nuclear factor kappa-B kinase subunit beta (Homo sapiens, UniProt O14920)
[36] = biological target: Tyrosine-protein kinase Lyn (Homo sapiens, UniProt P07948);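 also: lyn as one member of a kinase panel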
[37] = biological target: Receptor tyrosine-protein kinase erbB-4 (Homo sapiens, UniProt Q15303);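 also: ERBB4 member of a kinome-wide kinase profiling panel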
[38] = biological target: Serine/threonine-protein kinase D3 (Homo sapiens, UniProt O94806);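 also: determined within a kinase panel screen, with PRKCN as the panel member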
[39] = biological target: Mitogen-activated protein kinase 8 (Homo sapiens, UniProt P45983);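 also: value comes from one member of a kinome-wide kinase profiling panel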
[40] = biological target: T3, Melanin-concentrating hormone receptor 1; test: Late-stage fluorescence-based counterscreen for antagonists of the G-protein coupled receptor 7 (GPR7): cell-based dose response assay to identify antagonists of the melanin-concentrating hormone receptor 1 (MCHR1) Set 5.
[41] = biological target: T4, Neuropeptides B/W receptor type 1; test: human NPBW1 receptor blockade, IC50 – cell-based, fluorescence, dose response, set 5, late-stage follow-up (AID 588566)
LIM domain kinase 1 = LIM domain kinase 1 (Homo sapiens, UniProt P53667); test: Navigating the Kinome. Panel member name: LIMK1

SMILES: COc1cc(C=Nn2c(S)nnc2-c2[nH]nc3c2CCC3)ccc1O
IC50 [1]: 0.732 µM (active)
IC50 [2]: > 99 µM (inactive)
IC50 [3]: 0.808 µM (active)
IC50 [4]: > 99 µM (inactive)

SMILES: O=[N+]([O-])c1cc(/C=N\Nc2ccccn2)ccc1Cl
EC50 [5]: 9.33 µM (active)

SMILES: CCc1c(C(C#N)c2ccccc2)cnn(Cc2cccc3ccccc23)c1=O (configuration not stated)
IC50 [29]: 4.72 µM (active)
IC50 [30]: 4.72 µM (active)

SMILES: c1ccc(-c2n[nH]cc2-c2ccncc2)cc1
Ki [7]: > 25.1 µM (inactive)
Ki [8]: > 25.1 µM (inactive)
Ki [9]: > 3.16 µM (inactive)
Ki [10]: > 20 µM (inactive)
Ki [31]: > 5.01 µM (inactive)
Ki (Aurora kinase A): 6.31 µM (active)
Ki [11]: 0.251 µM (active)
Ki [12]: 7.94 µM (active)
Ki [13]: 20 µM (active)
Ki [32]: 10 µM (active)
Ki [14]: > 15.8 µM (inactive)
Ki [15]: > 12.6 µM (inactive)
Ki [33]: > 3.98 µM (inactive)
Ki [34]: > 10 µM (inactive)
Ki [16]: 10 µM (active)
Ki [17]: 1.26 µM (active)
Ki [18]: > 20 µM (inactive)
Ki [19]: > 20 µM (inactive)
Ki [20]: 7.94 µM (active)
Ki [21]: 0.794 µM (active)
Ki [35]: > 7.94 µM (inactive)
Ki [23]: 10 µM (active)
Ki [24]: > 20 µM (inactive)
Ki (Ephrin type-A receptor 2): > 20 µM (inactive)
Ki [36]: 2 µM (active)
Ki [26]: 2.51 µM (active)
Ki [27]: 2.51 µM (active)
Ki [37]: 1 µM (active)
Ki [28]: > 20 µM (inactive)

SMILES: COc1ccc(S(=O)(=O)c2c(Cl)cnn(Cc3cccc4ccccc34)c2=O)cc1
IC50 [40]: 4.44 µM (active)
IC50 [41]: ~6.06 µM (active)

More lines, now with the values ahead:

Ki [6]: > 7.94 µM (inactive)
Ki [7]: > 10 µM (inactive)
Ki [8]: 7.94 µM (active)
Ki [9]: 1 µM (active)
Ki [10]: > 7.94 µM (inactive)
Ki (Aurora kinase A): > 6.31 µM (inactive)
Ki [11]: 1.58 µM (active)
Ki [12]: > 6.31 µM (inactive)
Ki [13]: > 10 µM (inactive)
Ki [14]: > 6.31 µM (inactive)
Ki [15]: > 5.01 µM (inactive)
Ki [16]: > 10 µM (inactive)
Ki [17]: > 10 µM (inactive)
Ki [18]: > 7.94 µM (inactive)
Ki [19]: > 7.94 µM (inactive)
Ki [20]: 6.31 µM (active)
Ki [21]: > 7.94 µM (inactive)
Ki [22]: 5.01 µM (active)
Ki [23]: > 7.94 µM (inactive)
Ki [24]: > 7.94 µM (inactive)
Ki (Ephrin type-A receptor 2): > 7.94 µM (inactive)
Ki [25]: > 7.94 µM (inactive)
Ki [26]: 0.501 µM (active)
Ki [27]: > 7.94 µM (inactive)
Ki [28]: > 7.94 µM (inactive)
SMILES: COc1ccc(OC)c(CNC(=O)c2cc(N)c(C#N)c(OC(C)C)n2)c1

Ki [38]: 6.31 µM (active)
Ki [39]: 1.58 µM (active)
SMILES: CC(=O)Nc1cc(N)c(C#N)c(OCC(C)C)n1

Ki [13]: 5.01 µM (active)
Ki (LIM domain kinase 1): 2.51 µM (active)
SMILES: COc1ccccc1NC(=O)c1cnn2c(-c3ccccc3)ccnc12
